Results as given in patent US9421220B2, “Anti-cancer composition comprising alginate” (THE UNIVERSITY OF BIRMINGHAM EDGBASTON, priority 2009, dated 2016).

Columns and labels:
[1] = system: normal human colonic cells; details: normal cells exposed to increased levels of iron; cited from earlier work
[2] = system: cells containing a mutant APC protein; details: cells deficient in the APC protein exposed to iron; cited from earlier work
Apc^Min/+ mouse = experiment: Tumour burden in Apc^Min/+ mice; type: in vivo; details: for effect on tumour number, size or tumour burden compared to control mice: Apc^Min/+ mice fed control diet, sub-cutaneous injection
Experimental: To delineate how iron mediates colorectal carcinogenesis in-vivo, further experiments were carried out using the ‘Apc^Min/+’ mouse. These mice carry a mutation which disrupts the ability of the APC tumour suppressor to bind and turnover b-catenin, and the mice develop 100's of benign adenomas.
Apc^Min/+ mice were fed a standard control diet (n=17) or an iron deficient diet (n=11) immediately post weaning with tumour burden being assessed at 80 days of age. In addition mice were fed a high iron diet (standard control diet supplemented with 2% reduced pentacarbonyl iron (Harlan UK)) (n=6) but in these animals tumour burden was assessed at 45 days of age. A fourth group of Apc^Min/+ mice (n=9), were fed the standard control diet but upon reaching 50 days of age were injected sub-cutaneously with iron dextran (50 mgs) with tumour burden being assessed at 85 days of age. A fifth group of Apc^Min/+ mice (n=9), were fed the standard control diet and post weaning were injected daily sub-cutaneously with the systemic iron chelator desferioxamine (200 mgs/kg).

| Molecule | phenotypic effects [1] | cellular viability and proliferation [2] | effect on tumour number, size or tumour burden compared to control mice (Apc^Min/+ mouse) | tumour burden (Apc^Min/+ mouse; Apc^Min/+ mice on iron deficient diet co-administered with iron dextran) |
| --- | --- | --- | --- | --- |
| [Fe] [iron] | no phenotypic effects | increased | – | – |
| CC(=O)N(O)CCCCCNC(=O)CCC(=O)N(O)CCCCCNC(=O)CCC(=O)N(O)CCCCCN [desferioxamine] | – | – | no effect | – |
| iron dextran | – | – | no effect | suppression |
